{"source": "patent US8703951B2", "about": "“Synthesis of 4H-benzo[D]pyrrolo[1,2-A]thiazoles and indolizino[6,7-b]indole derivatives and their use as antitumor therapeutic agents” (Academia Sinica, priority 2011, dated 2014)", "key": {"glioma U87": {"tested_on": "glioma U87", "experiment": "In vitro cytotoxicity, Alamar blue assay, U87", "format": "cell-based, human", "settings": "Table 6, 72 h", "experimental": "(§1) Prostate cancer PC3, non-small cell lung carcinoma cells H1299, and human glioma cells U87 were purchased from the American Type Culture Collection (Rockville, Md.). OECM-1 (human gingival squamous cell carcinoma cells) was obtained from Dr C.-L. Meng (National Defense Medical College, Taiwan).^22\n(§2) In preparation for in vitro cytotoxicity assays, cells were cultured at an initial density 2−5×10^4 cells per milliliter. They were maintained in a 5% CO2-humidified atmosphere at 37° C. in RPMI medium 1640 (GIBCO/BRL) containing penicillin (100 units/mL), streptomycin (100 μg/mL, GIBCO/BRL), and 5% heat-inactivated FBS. For cells grown in suspension (such as CCRF-CEM and its sublines), cytotoxicity was measured, by using XTT microculture method^23 in 96-well microtiter plates.\n(§3) The cytotoxic effects of the newly synthesized compounds were determined in T-cell acute lymphocytic leukemia (CCRF-CEM) and their resistant subcell lines (CCRF-CEM/Taxol and CCRF-CEM/VBL) by the XTT assay^24 and human solid tumor cells (i.e. breast carcinoma MX-1 and colon carcinoma HCT-116) by the SRB assay^25 in a 72 h incubation using a microplate spectrophotometer as described previously.^25 After the addition of phenazine methosulfate-XTT solution, incubated at 37° C. for 6 h and absorbance at 450 and 630 nm was detected on a microplate reader (EL 340). The cytotoxicity of the newly synthesized compounds against non-small cell lung carcinoma H1299, prostate cancer PC3, oral cancer OECM-1 and glioma U87 were determined by the Alamar blue assay^26 in a 72 h incubation using a microplate spectrophotometer as described previously. After the addition of alamar blue solution, it was incubated at 37° C. for 6 h. Absorbance at 570 and 600 nm was detected on a microplate reader. IC50 values were determined from dose-effect relationship at six or seven concentrations of each drug using the CompuSyn software by Chou and Martin^27 based on the median-effect principle and plot.^28,29 Ranges given for Cisplatin were mean±SE (n=4)."}, "CCRF-CEM/VBL": {"tested_on": "CCRF-CEM/VBL", "experiment": "In vitro cytotoxicity, XTT assay, CCRF-CEM/VBL", "format": "cell-based, human", "settings": "Table 5; for IC50: vinblastine-resistant subline, XTT, 72 h, read-out: Cell Growth inhibition (IC50 μM) CCRF-CEM/VBL; for fold of cross-resistant vs IC50 of the parent cell line, CCRF-CEM/VBL: number in brackets", "excerpt": "(§4) Human colon carcinoma HCT-116 cells and human prostate adenocarcinoma PC-3 cells were obtained from American Type Culture Collection (ATCC, Rockville, Md.). Human mammary carcinoma (MX-1) tumor cells were obtained from MSKCC cell bank. The CCRF-CEM human lymphoblastic leukemia cells and their vinblastine resistant subline (CCRF-CEM/VBL, 680-fold resistance in vitro) were obtained from Dr. William Beck of the University of Illinois, Chicago, and CCRF-CEM/Taxol (330-fold resistance in vitro). Resistant cells CCRF-CEM/taxol were produced by exposing the parent cells to increasing sublethal concentration (IC50-IC90) of paclitaxel for six months.\nas §2, §3"}, "breast carcinoma MX-1": {"tested_on": "breast carcinoma MX-1", "experiment": "In vitro cytotoxicity, SRB assay, MX-1", "format": "cell-based, human", "settings": "Table 6, 72 h", "excerpt": "as §4, §2, §3"}, "CCRF-CEM/Taxol": {"tested_on": "CCRF-CEM/Taxol", "experiment": "In vitro cytotoxicity, XTT assay, CCRF-CEM/Taxol", "format": "cell-based, human", "settings": "Table 5; for IC50: Taxol-resistant subline, XTT, 72 h, read-out: Cell Growth inhibition (IC50 μM) CCRF-CEM/Taxol; for fold of cross-resistant vs IC50 of the parent cell line, CCRF-CEM/Taxol: number in brackets", "excerpt": "as §4, §2, §3"}, "[1]": {"tested_on": "non-small cell lung carcinoma H1299", "experiment": "In vitro cytotoxicity, Alamar blue assay, H1299", "format": "cell-based, human", "experimental": "as §1, §2, §3"}, "colon carcinoma HCT-116": {"tested_on": "colon carcinoma HCT-116", "experiment": "In vitro cytotoxicity, SRB assay, HCT-116", "format": "cell-based, human", "excerpt": "as §4, §2, §3"}, "[2]": {"tested_on": "human lymphoblastic leukemia (CCRF-CEM)", "experiment": "In vitro cytotoxicity, XTT assay, CCRF-CEM", "format": "cell-based", "settings": "Table 5, 72 h incubation, read-out: Cell Growth inhibition (IC50 μM) CCRF-CEM", "excerpt": "as §4, §2, §3"}, "oral cancer OECM-1": {"tested_on": "oral cancer OECM-1", "experiment": "In vitro cytotoxicity, Alamar blue assay, OECM-1", "format": "cell-based, human", "experimental": "as §1, §2, §3"}, "prostate cancer PC3": {"tested_on": "prostate cancer PC3", "experiment": "In vitro cytotoxicity, Alamar blue assay, PC3", "format": "cell-based, human", "settings": "Table 6, 72 h", "experimental": "as §1, §2, §3"}, "linearized pBR322DNA": {"tested_on": "linearized pBR322DNA", "experiment": "DNA cross-linking, alkaline agarose gel shift assay", "format": "biochemical", "settings": "1, 10, and 20 μM; FIG. 8", "experimental": "Formation of DNA cross-linking was analyzed by alkaline agarose gel electrophoresis assay. […] The reaction mixture was incubated at 37° C. for 2 h. At the end of reaction, the plasmid DNA was linearized by digestion with BamHI and followed by precipitation with ethanol. The DNA pellets were dissolved and denatured in alkaline buffer (0.5 N NaOH-10 mM EDTA). An aliquot of 20 μL of DNA solution (1000 ng) was mixed with 4 μL of 6× alkaline loading dye and then electrophoretically resolved on a 0.8% alkaline agarose gel with NaOH-EDTA buffer at 4° C. The electrophoresis was carried out at 18 V for 22 h. After staining the gels with an ethidium bromide solution, the DNA was then visualized under UV light."}, "[3]": {"settings": "Homo sapiens, NCI-H1299, Table 6, 72 h"}, "[4]": {"settings": "Homo sapiens, OECM1, Table 6, 72 h"}}, "note": "Read-outs that look alike come from different tables or passages of the source.", "data": [{"smiles": "OCc1c(CO)c2sc3ccccc3n2c1-c1ccc(F)cc1", "note": "[Compound 18b, (1-(4-Fluorophenyl)benzo[d]pyrrolo[2,1-b]thiazole-2,3-diyl)dimethanol]", "values": [{"measurement": "IC50", "setting": "glioma U87; Homo sapiens", "result": "15.5 ± 1.31", "unit": "µM"}, {"measurement": "IC50", "setting": "CCRF-CEM/VBL; Homo sapiens, CCRF-CEM", "result": "3.72 ± 0.175", "unit": "µM"}, {"measurement": "fold of cross-resistant vs IC50 of the parent cell line, CCRF-CEM/VBL", "setting": "CCRF-CEM/VBL", "result": 3.50, "unit": "×"}, {"measurement": "IC50", "setting": "breast carcinoma MX-1; Homo sapiens", "result": "2.77 ± 0.005", "unit": "µM"}, {"measurement": "IC50", "setting": "CCRF-CEM/Taxol; Homo sapiens, CCRF-CEM", "result": "2.56 ± 0.012", "unit": "µM"}, {"measurement": "fold of cross-resistant vs IC50 of the parent cell line, CCRF-CEM/Taxol", "setting": "CCRF-CEM/Taxol", "result": 2.41, "unit": "×"}, {"measurement": "IC50", "setting": "[1]; [3]", "result": "9.27 ± 1.69", "unit": "µM"}, {"measurement": "IC50", "setting": "colon carcinoma HCT-116; Homo sapiens, HCT-116, Table 6, 72 h", "result": "9.59 ± 0.19", "unit": "µM"}, {"measurement": "IC50", "setting": "[2]; Homo sapiens, CCRF-CEM", "result": "1.06 ± 0.04", "unit": "µM"}, {"measurement": "IC50", "setting": "oral cancer OECM-1; [4]", "result": "6.03 ± 1.2", "unit": "µM"}, {"measurement": "IC50", "setting": "prostate cancer PC3; Homo sapiens", "result": "13.8 ± 2.15", "unit": "µM"}]}, {"smiles": "OCc1c(CO)c2sc3ccccc3n2c1-c1ccc(Cl)c(Cl)c1", "note": "[Compound 18e, (1-(3,4-Dichlorophenyl)benzo[d]pyrrolo[2,1-b]thiazole-2,3-diyl)dimethanol]", "values": [{"measurement": "melting point", "result": "159 to 160", "unit": "°C"}]}, {"smiles": "OCc1c(CO)c2sc3ccccc3n2c1-c1ccc(F)c(Cl)c1", "note": "[Compound 18f, (1-(3-Chloro-4-fluorophenyl)benzo[d]pyrrolo[2,1-b]thiazole-2,3-diyl)dimethanol]", "values": [{"measurement": "melting point", "result": "178 to 179", "unit": "°C"}]}, {"smiles": "COc1ccc(-c2c(CO)c(CO)c3sc4ccccc4n23)cc1", "note": "[Compound 18g, (1-(4-Methoxyphenyl)benzo[d]pyrrolo[2,1-b]thiazole-2,3-diyl)dimethanol]", "values": [{"measurement": "IC50", "setting": "glioma U87; Homo sapiens", "result": "18.1 ± 3.71", "unit": "µM"}, {"measurement": "IC50", "setting": "CCRF-CEM/VBL; Homo sapiens, CCRF-CEM", "result": "2.63 ± 0.031", "unit": "µM"}, {"measurement": "fold of cross-resistant vs IC50 of the parent cell line, CCRF-CEM/VBL", "setting": "CCRF-CEM/VBL", "result": 2.30, "unit": "×"}, {"measurement": "IC50", "setting": "CCRF-CEM/Taxol; Homo sapiens, CCRF-CEM", "result": "2.17 ± 0.02", "unit": "µM"}, {"measurement": "fold of cross-resistant vs IC50 of the parent cell line, CCRF-CEM/Taxol", "setting": "CCRF-CEM/Taxol", "result": 1.9, "unit": "×"}, {"measurement": "IC50", "setting": "[1]; [3]", "result": "9.94 ± 1.87", "unit": "µM"}, {"measurement": "IC50", "setting": "[2]; Homo sapiens, CCRF-CEM", "result": "1.13 ± 0.09", "unit": "µM"}, {"measurement": "IC50", "setting": "oral cancer OECM-1; [4]", "result": "5 ± 0.78", "unit": "µM"}, {"measurement": "DNA interstrand cross-linking", "setting": "linearized pBR322DNA", "result": "able to bind covalently (interstrand cross-linking) with DNA"}, {"measurement": "IC50", "setting": "prostate cancer PC3; Homo sapiens", "result": "8.81 ± 1.2", "unit": "µM"}]}, {"smiles": "COc1ccc(-c2c(CO)c(CO)c3sc4ccccc4n23)cc1OC", "note": "[Compound 18h, (1-(3,4-Dimethoxyphenyl)benzo[d]pyrrolo[2,1-b]thiazole-2,3-diyl)dimethanol]", "values": [{"measurement": "melting point", "result": "215 to 216", "unit": "°C"}]}, {"smiles": "COc1cc(-c2c(CO)c(CO)c3sc4ccccc4n23)cc(OC)c1OC", "note": "[Compound 18i, (1-(3,4,5-Trimethoxyphenyl)benzo[d]pyrrolo[2,1-b]thiazole-2,3-diyl)dimethanol]", "values": [{"measurement": "melting point", "result": "160 to 161", "unit": "°C"}]}, {"smiles": "CCNC(=O)OCc1c(COC(=O)NCC)c2sc3ccccc3n2c1-c1ccc(F)cc1", "note": "[Compound 19b, (1-(4-Fluorophenyl)benzo[d]pyrrolo[2,1-b]thiazole-2,3-diyl)bis(methylene)bis(ethylcarbamate)]", "values": [{"measurement": "IC50", "setting": "glioma U87", "result": "29.2 ± 2.63", "unit": "µM"}, {"measurement": "fold of cross-resistant vs IC50 of the parent cell line, CCRF-CEM/VBL", "setting": "CCRF-CEM/VBL", "result": 6.42, "unit": "×"}, {"measurement": "IC50", "setting": "CCRF-CEM/VBL", "result": "0.45 ± 0.033", "unit": "µM"}, {"measurement": "IC50", "setting": "breast carcinoma MX-1", "result": "0.48 ± 0.005", "unit": "µM"}, {"measurement": "IC50", "setting": "CCRF-CEM/Taxol", "result": "0.38 ± 0.002", "unit": "µM"}, {"measurement": "fold of cross-resistant vs IC50 of the parent cell line, CCRF-CEM/Taxol", "setting": "CCRF-CEM/Taxol", "result": 5.42, "unit": "×"}, {"measurement": "IC50", "setting": "[1]; Table 6, 72 h", "result": "13.6 ± 2.03", "unit": "µM"}, {"measurement": "IC50", "setting": "colon carcinoma HCT-116; Table 6, 72 h", "result": "0.52 ± 0.025", "unit": "µM"}, {"measurement": "IC50", "setting": "[2]", "result": "0.07 ± 0.0002", "unit": "µM"}, {"measurement": "IC50", "setting": "oral cancer OECM-1; Table 6, 72 h", "result": "11.5 ± 2.63", "unit": "µM"}, {"measurement": "IC50", "setting": "prostate cancer PC3", "result": "23.7 ± 3.05", "unit": "µM"}]}]}
